{
  "source": "patent US20230312687A1",
  "about": "“CELL-FREE ANIMAL COLLAGEN, METHODS OF PRODUCTION AND USES THEREOF” (ALEPH FARMS LTD., priority 2020, published 2023)",
  "type_in_all_cases": "cell-based",
  "key": {"[1]": {"system": "bovine embryonic fibroblasts", "test": "Insoluble collagen from culture dish (Total Collagen Assay kit, hydroxyproline)", "conditions": "different concentrations of GM6001 (0-500 μM in text, 0-200 μM in legend), 4 days", "method": "24 hours after seeding the medium was changed to basal medium with different concentration (0-500 μM) of GM6001, a matrix metalloprotease (MMP) inhibitor which prevents C-terminal cleavage of the procollagen.\n• 1. Wash the cells once with PBS.\n(§1) 35,000 bovine embryonic fibroblast cells/cm^2 were seeded in standard medium (DMEM+10% Fetal Bovine Serum+1% penicillin\\streptomycin). 24 hours after seeding the medium was changed to basal medium with different concentration (0-500 μM) of GM6001, a matrix metalloprotease (MMP) inhibitor which prevents C-terminal cleavage of the procollagen. After 4 days, the medium was collected from the cultures and measured for soluble collagen levels. Insoluble collagen was collected from the culture dish its level was measured."}, "[2]": {"system": "bovine embryonic fibroblasts", "test": "Secreted soluble collagen in growth medium (QuickZyme soluble collagen assay, Sirius Red)", "method": "(§2) 35,000 bovine embryonic fibroblast cells/cm^2 were seeded in standard medium. 24 hours later the medium was changed to basal medium and the soluble collagen was measured on day 6 or 7. Likewise, 20,000 stromal cells/cm^2 were seeded in basal medium. 24 hours later the cells were transfected with siRNA targeted to LOX or a scramble sequence as a control. After 24 hours the medium was changed to fresh basal medium. The soluble collagen levels were measured daily from day 3 until day 7.\n(§3) Secreted soluble collagen was measured using QuickZyme soluble collagen assay which is based on binding of the dye Sirius Red to collagen. Following binding of the dye, the collagen-dye complex precipitates, resulting in a colored pellet. The pellet is re-suspended in an alkaline solution and the absorbance is measured in a plate reader.\n(§4) • 1. Conditioned culture medium is collected and centrifuged for 10 minutes at 1,500 g (at 4° C.) to remove cell debris. • 2. The supernatant is diluted in a dilution buffer placed in the assay microplate (V-shaped plate). • 3. The collagen standard solution is diluted in serial dilutions in the dilution buffer and placed in the assay microplate (V-shaped plate). • 4. Sirius red dye is added to the samples and to the standards and mixed. • 5. The plate is centrifuged for 60 minutes at 3000×g at 4° C. to precipitate the pellet. • 6. The pellets are washed and resuspended.\n(§5) The resuspended colored solution is transferred to the reading microplate (flat bottom) and read at 540 nm.\n35,000 bovine embryonic fibroblast cells/cm^2 were expanded in standard medium (DMEM+10% Fetal Bovine Serum+1% penicillin\\streptomycin). 24 hours after seeding their medium was changed to basal medium with 50 μM GM6001.\nas §1"}, "[3]": {"system": "bovine stromal cells", "test": "Secreted soluble collagen in growth medium of stromal cells (QuickZyme soluble collagen assay)", "method": "as §2, §3\nas §4, with “The plate is centrifuged for 60 minutes at 3000×g at 4° C. to precipitate the pellet. • 6. The pellets are washed and resuspended.” left out\nas §5"}, "[4]": {"system": "Bovine LOX (lysyl oxidase) gene", "test": "RT-PCR analysis of LOX mRNA level after siRNA transfection", "conditions": "20 nM siRNA, bovine stromal cells, 24 hours after transfection, n=2", "method": "The Bovine LOX (lysyl oxidase) gene (Gene ID: 280841) was knockdown using siRNA. 20,000 bovine stromal cells/cm^2 were transfected with 20 nM of siRNA sequence against LOX (5′[…]3′; SEQ ID NO:1) or a scramble sequence (5′[…]3′; SEQ ID NO:2) as control, using Dharmacon DharmaFECT 1 transfection reagent. 24 hours after transfection the cells were lysed for RNA extraction. The RNA was reverse transcribed to cDNA and 5 ng/μl were subjected to RT-PCR with the following primers: […]"}},
  "note": "“Also recorded” adds a separate entry of the source.",
  "data": [
    {"compound": "CNC(=O)[C@H](Cc1c[nH]c2ccccc12)NC(=O)[C@@H](CC(=O)NO)CC(C)C", "note": "[GM6001, Ilomastat]", "values": [
      {"measurement": "insoluble collagen level with increasing GM6001 concentration", "setting": "[1]", "result": "decrease; also recorded: decreasing"},
      {"measurement": "amount of secreted soluble collagen for 10^6 bovine embryonic fibroblasts", "setting": "[2]; 50 μM GM6001", "result": "about 1 mg"},
      {"measurement": "increase of soluble collagen in the growth medium vs basal medium", "setting": "[2]; 50 μM GM6001, 72 hours", "result": "more than 2 folds"},
      {"measurement": "amount of soluble collagen in the growth medium", "setting": "[2]; Basal medium + 50 μM GM6001, 72 hours, N=6, basal medium alone 375", "result": 825, "unit": "μg/10^6 cells"},
      {"measurement": "secreted soluble collagen in the growth medium (in words)", "setting": "[2]; basal medium supplemented with GM6001, bovine embryonic fibroblasts", "result": "enhanced"},
      {"measurement": "maximum soluble collagen level", "setting": "[2]; basal medium with 50 μM GM6001, measured daily, maximum on the 7th day", "result": "~900", "unit": "μg\\10^6 cells"},
      {"measurement": "soluble collagen level with increasing GM6001 concentration", "setting": "[2]; different concentrations of GM6001, 4 days, increase up to about 50 μM", "result": "enriches; also recorded: increased"},
      {"measurement": "soluble collagen levels in the growth medium, LOX silencing combined with GM6001", "setting": "[3]; LOX siRNA-treated bovine stromal cells, basal medium with 50 μM GM6001", "result": "increased; also recorded: enhanced"},
      {"measurement": "secreted soluble collagen in the growth medium (in words)", "setting": "[3]; basal medium supplemented with GM6001, bovine stromal cells", "result": "enhanced"}
    ]},
    {"compound": "5′GCUGAUAACCAGACGGCACUU3′ (listed as RNA, chemistry not given here) [siRNA sequence against LOX]", "values": [
      {"measurement": "reduction of LOX expression (mRNA) relative to scramble control", "setting": "[4]", "result": 80, "unit": "%"}
    ]}
  ]
}
